Assay results from US7442541B2, “β-glucan-containing fat and oil composition and novel microorganism capable of producing β-glucan” (Adeka Corporation, priority 2002, dated 2008).

Key:
Assay in all cases: Cycloheximide resistance test
Format in all cases: cell-based
ADK-10 = settings: strain ADK-10, YM agar, 26° C., 10 days
Procedure: (§1) The strains obtained by the screening in Test Examples 1 and 2 and IFO-4466, IFO-6353, and IFO-7757 purchased from Institute for Fermentation, Osaka, i.e., were tested for cycloheximide resistance as follows. Each strain was grown on YM agar medium (Difco) at 26° C. for 5 days. YM agar media (Difco) containing 5, 10, 20, 40, and 80 μg/ml of cycloheximide were prepared. The grown strain was inoculated into each of the cycloheximide-containing media using a sterile toothpick and incubated at 26° C. for 10 days. The plates were examined for colonies. The diameters of the colonies, if formed, were measured.

ADK-42 = settings: strain ADK-42, YM agar, 26° C., 10 days
Procedure: as §1

ADK-27 = settings: strain ADK-27, YM agar, 26° C., 10 days
Procedure: as §1

ADK-17 = settings: strain ADK-17, YM agar, 26° C., 10 days
Procedure: as §1

With C[C@@H]1C[C@@H]([C@H](O)CC2CC(=O)NC(=O)C2)C(=O)[C@@H](C)C1 [Cycloheximide, cycloheximide] as the compound, how does the Colony diameter (ADK-10; cycloheximide 5 μg/ml) read?
The Colony diameter was 8.5 mm.

And the Colony diameter (ADK-10; cycloheximide 10 μg/ml)?
The Colony diameter was 0 mm.

And the Colony diameter (ADK-10; cycloheximide 20 μg/ml)?
Its Colony diameter is 0 mm.

And the Colony diameter (ADK-10; cycloheximide 40 μg/ml)?
Its Colony diameter is 0 mm.

And the Colony diameter (ADK-10; cycloheximide 80 μg/ml)?
The Colony diameter was 0 mm.

What about the Colony diameter (ADK-42; cycloheximide 5 μg/ml) of the same compound?
Its Colony diameter is 2.4 mm.

What about the Colony diameter (ADK-42; cycloheximide 10 μg/ml) of the same compound?
Its Colony diameter is 0 mm.

And the Colony diameter (ADK-42; cycloheximide 20 μg/ml)?
The Colony diameter was 0 mm.

What about the Colony diameter (ADK-42; cycloheximide 40 μg/ml) of the same compound?
Its Colony diameter is 0 mm.

And the Colony diameter (ADK-42; cycloheximide 80 μg/ml)?
The Colony diameter was 0 mm.

What about the Colony diameter (ADK-27; cycloheximide 5 μg/ml) of the same compound?
Its Colony diameter is 10.3 mm.

And the Colony diameter (ADK-27; cycloheximide 10 μg/ml)?
The Colony diameter was 0 mm.

And the Colony diameter (ADK-27; cycloheximide 20 μg/ml)?
Its Colony diameter is 0 mm.

What about the Colony diameter (ADK-27; cycloheximide 40 μg/ml) of the same compound?
The Colony diameter was 0 mm.

What about the Colony diameter (ADK-27; cycloheximide 80 μg/ml) of the same compound?
Its Colony diameter is 0 mm.

And the Colony diameter (ADK-17; cycloheximide 5 μg/ml)?
The Colony diameter was 6.7 mm.

What about the Colony diameter (ADK-17; cycloheximide 10 μg/ml) of the same compound?
The Colony diameter was 0 mm.

What about the Colony diameter (ADK-17; cycloheximide 20 μg/ml) of the same compound?
Its Colony diameter is 0 mm.

What about the Colony diameter (ADK-17; cycloheximide 40 μg/ml) of the same compound?
The Colony diameter was 0 mm.

And the Colony diameter (ADK-17; cycloheximide 80 μg/ml)?
The Colony diameter was 0 mm.
